For the first test, the system named is vascular smooth muscle cells. In words: Reduction of intracellular lipid deposits in lipid-loaded cell cultures. The test is classed as cell-based. As to conditions: individual element; concentration per row in μg/ml (0.016% RDA); 3 days after exposure; vs untreated control cultures = 100% lipid deposits; n = 24. As to the method: To evaluate the effects of vitamins, minerals & trace-elements on the cellular capacity to eliminate intracellular lipid deposits, the cultures of vascular smooth muscle cells were prepared on plastic cover slips in vitro as described by Shrivastava at al (Meth Expt Find,1994).
A 50-60% cell monolayer was obtained within 4 days of culture. The hyperlipidemic rabbit serum was added to the culture medium, cells were incubated at 37° C.-5% CO2 for 48 h and the presence of intracellular cytoplasmic lipid deposit was quantified (considered 100% lipid deposits) . The culture medium was then replaced by a predefined blank medium containing no vitamins, minerals & trace-elements containing 1% fetal calf serum. Desired concentrations of vitamins, minerals and trace-elements were prepared in the predefined control culture medium by dissolving the test substances in the medium and by replacing the culture medium by the test product containing medium.
The in vitro cytoxicity of each vitamin, mineral and trace-element was determined. […]
The results were expressed a mean percentage decrease in intracellular lipid deposits compared to the untreated control cultures considered as containing 100% lipid deposits.
`[O-2].[Zn+2]` [Zinc, zinc oxide]: the “Percent decrease in intracellular lipids” value was 16.3 ± 4.4%. `[O]=[Mg]` [Magnesium, magnesium oxide]: the “Percent decrease in intracellular lipids” value turned out to be 22.0 ± 5.2%.

On to calcium gluconate, for which the “Percent decrease in intracellular lipids” value was 0.0%. Still for that read-out and setting: next, `[I-].[K+]` [Iodine, potassium iodide]: 0.0%. iron gluconate: the “Percent decrease in intracellular lipids” value amounted to 6.3 ± 2.7%. Same read-out and setting: next, `[Cl-].[K+]` [Potassium, potassium chloride]: 0.0%.

Staying with this test, now noted: tables 1-3.
As to `CC(=O)Oc1c(C)c(C)c2c(c1C)CCC(C)(CCC[C@H](C)CCC[C@H](C)CCCC(C)C)O2` (stereo partly drawn) [Vitamin E, tocopherol acetate], the “effect on the reduction/elimination of intracellular lipid deposits (in words)” value (“effect on the reduction/elimination” below) is “minor effect”. `Nc1nc2ncc(CNc3ccc(C(=O)N[C@@H](CCC(=O)O)C(=O)O)cc3)nc2c(=O)[nH]1` [Vitamin B9, folic acid]: the “effect on the reduction/elimination” value is “minor effect”. Regarding `CC1=C(/C=C/C(C)=C/C=C/C(C)=C/C=C/C=C(C)/C=C/C=C(C)/C=C/C2=C(C)CCCC2(C)C)C(C)(C)CCC1` [Vitamin A, beta carotene], the “effect on the reduction/elimination” value is “minor effect”. Take `[O-2].[Zn+2]` [Zinc, zinc oxide]: the “effect on the reduction/elimination” value was “minor effect”. The same measure, in the same setting: next, `Cc1cc2nc3c(=O)[nH]c(=O)nc-3n(C[C@H](O)[C@H](O)[C@H](O)CO)c2cc1C` [Vitamin B2, riboflavin]: “minor effect”; `[O]=[Mg]` [Magnesium, magnesium oxide]: “minor effect”.

For the origin of these results see patent US20050266096A1, “New synergetic compositions of vitamins, minerals and trace-elements to stimulate the elimination of intra-cellular lipid deposits” (priority 2004, published 2005).
